Each structure is given as a SMILES string. Some results are limits rather than exact numbers.

In this assay the target is T1, Human CARM1 (PRMT4) (Homo sapiens, UniProt Q86X55).
T1 construct: Flag-CARM1-His; made in house; host or cells: HEK 293F cells (BacMam baculovirus)
T1 sequence (Q86X55 1-585 isoform Q86X55-1): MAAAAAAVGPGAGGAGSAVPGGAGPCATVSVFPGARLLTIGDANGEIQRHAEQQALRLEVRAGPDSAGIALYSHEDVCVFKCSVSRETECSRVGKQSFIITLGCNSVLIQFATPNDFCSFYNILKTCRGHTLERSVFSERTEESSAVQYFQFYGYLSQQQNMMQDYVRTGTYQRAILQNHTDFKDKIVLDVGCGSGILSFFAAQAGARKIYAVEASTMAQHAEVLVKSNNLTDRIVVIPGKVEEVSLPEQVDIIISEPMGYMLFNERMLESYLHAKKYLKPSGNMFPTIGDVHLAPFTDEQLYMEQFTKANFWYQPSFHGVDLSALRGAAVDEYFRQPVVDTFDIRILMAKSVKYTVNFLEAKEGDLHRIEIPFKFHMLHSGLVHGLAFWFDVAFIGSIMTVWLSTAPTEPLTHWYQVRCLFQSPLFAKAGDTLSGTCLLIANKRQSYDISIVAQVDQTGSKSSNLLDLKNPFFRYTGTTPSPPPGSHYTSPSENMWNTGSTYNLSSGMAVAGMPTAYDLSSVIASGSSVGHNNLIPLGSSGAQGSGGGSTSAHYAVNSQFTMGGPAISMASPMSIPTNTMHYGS
Nature of the assay: CARM1 Biochemical Assay. An excerpt:
General Materials. S-adenosylmethionine (SAM), S-adenosylhomocysteine (SAH), bicine, Tween20, dimethylsulfoxide (DMSO), bovine skin gelatin (BSG), sodium butyrate and Tris(2-carboxyethyl)phosphine hydrochloride solution (TCEP) were purchased from Sigma-Aldrich at the highest level of purity possible. ^3H-SAM was purchase from American Radiolabeled Chemicals with a specific activity of 80 Ci/mmol. 384-well streptavidin Flashplates were purchased from PerkinElmer.
Substrates. Peptide representative of human histone H3 residues 16-30 was synthesized with an N-terminal linker-affinity tag motif and a C-terminal amide cap by 21st Century Biochemicals. The peptide was purified by high-performance liquid chromatography (HPLC) to greater than 95% purity and confirmed by liquid chromatography mass spectrometry (LC-MS). The sequence was Biot-Ahx-[…]-amide and contained a monomethylated arginine at position 26 (SEQ ID NO.: 14).
Molecular Biology: Human CARM1 (PRMT4) (NM_199141.1) transcript clone was amplified from an HEK 293 cDNA library, incorporating a flanking 5′ sequence encoding a FLAG tag ([…]) (SEQ ID NO.:6) fused directly to Ala 2 of CARM1 and 3′ sequence encoding a hexa His sequence ([…]) (SEQ ID NO.: 15) fused directly to Ser 608. The gene sequence encoding isoform1 containing a deletion of amino acids 539-561 was amplified subsequently and subcloned into pFastBacMam (Viva Biotech).
Protein Expression. Recombinant baculovirus were generated according to Bac-to-Bac kit instructions (Life Technologies). […] Infections were carried out at 37° C. for 48 hours, harvested by centrifugation, and stored at −80° C. for purification.
Protein Purification. […] Column was washed with 500 mM NaCl in buffer A and Flag-CARM1-His was eluted with 200 ug/ml FLAG peptide in buffer A. Pooled fractions were dialyzed in 20 mM Tris, 150 mM NaCl, 5% glycerol and 1 mM DTT, pH 7.8. The purity of recovered protein was 94.
General Procedure for CARM1 Enzyme Assays on Peptide Substrates. The assays were all performed in a buffer consisting of 20 mM Bicine (pH=7.6), 1 mM TCEP, 0.005% BSG, and 0.002% Tween 20, prepared on the day of use. Compounds in 100% DMSO (1 ul) were spotted into a polypropylene 384-well V-bottom plates (Greiner) using a Platemate Plus outfitted with a 384-channel head (Thermo Scientific). DMSO (1 ul) was added to Columns 11, 12, 23, 24, rows A-H for the maximum signal control and 1 ul of SAH, a known product and inhibitor of CARM1, was added to columns 11, 12, 23, 24, rows I-P for the minimum signal control. A cocktail (40 ul) containing the CARM1 enzyme was added by Multidrop Combi (Thermo-Fisher). The compounds were allowed to incubate with CARM1 for 30 min at room temperature, then a cocktail (10 ul) containing ^3H-SAM and peptide was added to initiate the reaction (final volume=51 ul). The final concentrations of the components were as follows: CARM1 was 0.25 nM, ^3H-SAM was 30 nM, peptide was 250 nM, SAH in the minimum signal control wells was 1 mM, and the DMSO concentration was 2%. The assays were stopped by the addition of non-radiolabeled SAM (10 ul) to a final concentration of 300 uM, which dilutes the ^3H-SAM to a level where its incorporation into the peptide substrate is no longer detectable. 50 ul of the reaction in the 384-well polypropylene plate was then transferred to a 384-well Flashplate and the biotinylated peptides were allowed to bind to the streptavidin surface for at least 1 hour before being washed once with 0.1% Tween20 in a Biotek EL×405 plate washer. The plates were then read in a PerkinElmer TopCount plate reader to measure the quantity of ^3H-labeled peptide bound to the Flashplate surface, measured as disintegrations per minute (dpm) or alternatively, referred to as counts per minute (cpm).
Where dpm=disintegrations per minute, cmpd=signal in assay well, and min and max are the respective minimum and maximum signal controls. […]

The mark [1] stands for this setting: PRMT4 IC50, biochemical evaluation, CARM1 (PRMT4), peptide substrate.
The mark [2] stands for this setting: PRMT4 biochemical evaluation (numerical), single experiment or average of multiple experiments.

As a reminder, the IC50 is the point on the concentration scale where inhibition reaches its midpoint. Higher therefore signals weaker potency in that assay. `CNCCN(C)Cc1n[nH]c2ccc(OC3CCCCC3)cc12` [Compound 18] came in with a concentration for half-maximal inhibition (IC50) under setting [1] of 101 to 1000 nM.

`CNCCN(C)Cc1n[nH]c2ccc(OCc3ccn(C)n3)cc12` [Compound 20] yielded a half-maximal inhibitory concentration (IC50) under setting [2] of 153 nM.

`CNCCN(C)Cc1n[nH]c2ccc(Oc3cccc(OC)c3)cc12` [Compound 22] returned an IC50 under setting [1] of 101 to 1000 nM. Still for that read-out and setting: as for `CNCCN(C)Cc1n[nH]c2ccc(OCc3ccc(C(C)=O)cc3)cc12` [Compound 23], the figure is 101 to 1000 nM. With `CNCCN(C)Cc1n[nH]c2ccc(Oc3ccccc3OC)cc12` [Compound 24], the IC50 under setting [1] was < 100 nM and half-maximal inhibition under setting [2] (IC50) was put at 115 nM. As to `CNCCN(C)Cc1n[nH]c2ccc(OC3CCOC3)cc12` (stereo not shown) [Compound 25, N^1,N^2-dimethyl-N^1-((5-((tetrahydrofuran-3-yl)oxy)-1H-indazol-3-yl)methyl)ethane-1,2-diamine], the IC50 under setting [1] fell in the range of 101 to 1000 nM and the 50% inhibitory concentration (IC50) under setting [2] worked out at 932 nM. In the case of `CNCCN(C)Cc1n[nH]c2ccc(Oc3cccc(C)c3)cc12` [Compound 26], the half-inhibitory concentration (IC50) under setting [1] was in the range of 101 to 1000 nM and the IC50 under setting [2] is 35.1 nM. In the same order, the values of `CNCCN(C)Cc1n[nH]c2ccc(Oc3cccc(Cl)c3)cc12` [Compound 27, N^1-((5-(3-chlorophenoxy)-1H-indazol-3-yl)methyl)-N^1,N^2-dimethylethane-1,2-diamine] are 101 to 1000 nM and 390 nM. For `CNCCN(C)Cc1n[nH]c2ccc(Oc3cccc(C#N)c3)cc12` [Compound 28], in that order: 1010 to 3000 nM and 260 nM.

Regarding `CNCCN(C)Cc1n[nH]c2ccc(OC3CCOCC3)cc12` [Compound 29, N^1,N^2-dimethyl-N^1-((5-((tetrahydro-2H-pyran-4-yl)oxy)-1H-indazol-3-yl)methyl)ethane-1,2-diamine], the IC50 is 101 to 1000 nM under setting [1] and 446 nM under setting [2]. `CNCCN(C)Cc1n[nH]c2ccc(Oc3ccccc3Cl)cc12` [Compound 30]: the IC50 is, setting by setting: under setting [1], 101 to 1000 nM; under setting [2], 2340 nM. As for `CNCCN(C)Cc1n[nH]c2cccc(OCCC(C)C)c12` [Compound 31], the half-inhibitory concentration (IC50) under setting [2] stood at 423 nM. On to `CNCCN(C)Cc1nn(C)c2ccc(OCc3ccc(C#N)cc3)cc12` [Compound 32], for which the IC50 is, setting by setting: under setting [1], 101 to 1000 nM; under setting [2], 188 nM. In the same order, the values of `CNCCN(C)Cc1c2cc(OCc3ccc(C#N)cc3)ccc2nn1C(C)C` [Compound 34] are 3010 to 10000 nM and 310 nM. On to `CNCCN(C)Cc1n[nH]c2ccc(OC)cc12` [Compound 35], for which, under setting [1], the IC50 was 3010 to 10000 nM. In the case of `CNCCN(C)Cc1n[nH]c2ccc(O)cc12` [Compound 36, 3-((methyl(2-(methylamino)ethyl)amino)methyl)-1H-indazol-5-ol], the concentration for half-maximal inhibition (IC50) was 3010 to 10000 nM under setting [1] and 6130 nM under setting [2]. Take `CNCCN(C)Cc1n[nH]c2ccc(Oc3ccc(C#N)cc3)cc12` [Compound 37]: the IC50 by setting is: under setting [1], 1010 to 3000 nM; under setting [2], > 10000 nM. For `CNCCN(C)Cc1nn(C2CCN(C(C)=O)CC2)c2ccc(OCc3ccc(C#N)cc3)cc12` [Compound 38], the IC50 runs as follows: under setting [1], 1010 to 3000 nM; under setting [2], > 10000 nM. In the case of `CNCCN(C)Cc1n[nH]c2ccc(Oc3ccc(C(F)(F)F)cc3)cc12` [Compound 39], the IC50 by setting is: under setting [1], 101 to 1000 nM; under setting [2], 2880 nM. For `CNCCN(C)Cc1n[nH]c2cccc(OCCC(O)CO)c12` (stereo not shown) [Compound 40], in that order: 3010 to 10000 nM and 2110 nM. In the same order, the values of `CNCCN(C)Cc1n[nH]c2cccc(OCCCC(O)CO)c12` (stereo not shown) [Compound 41, 5-((3-((methyl(2-(methylamino)ethyl)amino)methyl)-1H-indazol-4-yl)oxy)pentane-1,2-diol] are 1010 to 3000 nM and 240 nM. In the same order, the values of `CNCCN(C)Cc1n[nH]c2ccc(C(C)C)cc12` [Compound 42, N^1-((5-isopropyl-1H-indazol-3-yl)methyl)-N^1,N^2-dimethylethane-1,2-diamine] are 1010 to 3000 nM and 4050 nM. For `CNCCN(C)Cc1n[nH]c2ccc(N3CCC4(CCCCC4)CC3)cc12` [Compound 43, N^1-((5-(3-azaspiro[5.5]undecan-3-yl)-1H-indazol-3-yl)methyl)-N^1,N^2-dimethylethane-1,2-diamine], the IC50 was 101 to 1000 nM under setting [1] and 1780 nM under setting [2]. For `CNCCN(C)Cc1n[nH]c2ccc(C3CCOCC3)cc12` [Compound 44, N^1,N^2-dimethyl-N^1-((5-(tetrahydro-2H-pyran-4-yl)-1H-indazol-3-yl)methyl)ethane-1,2-diamine], in that order: 101 to 1000 nM and 1010 nM. In the same order, the values of `CNCCN(C)Cc1n[nH]c2ccc(C3=CCOCC3)cc12` [Compound 45] are 101 to 1000 nM and 160 nM. In the case of `CNCCN(C)Cc1n[nH]c2ccc(N3CCCCC3)cc12` [Compound 46, N^1,N^2-dimethyl-N^1-((5-(piperidin-1-yl)-1H-indazol-3-yl)methyl)ethane-1,2-diamine], the half-maximal inhibitory concentration (IC50) is, setting by setting: under setting [1], 101 to 1000 nM; under setting [2], 259 nM. `CNCCN(C)Cc1n[nH]c2ccc(C3CCCCC3)cc12` [Compound 47, N^1-((5-cyclohexyl-1H-indazol-3-yl)methyl)-N^1,N^2-dimethylethane-1,2-diamine]: the concentration for half-maximal inhibition (IC50) is, setting by setting: under setting [1], 101 to 1000 nM; under setting [2], 370 nM.

As to `CNCCN(C)Cc1n[nH]c2ccc(C3=CCCCC3)cc12` [Compound 48], the IC50 by setting is: under setting [1], 101 to 1000 nM; under setting [2], 440 nM. Take `CNCCN(C)Cc1n[nH]c2ccc(Oc3ccccc3C(F)(F)F)cc12` [Compound 49]: the half-maximal inhibitory concentration (IC50) reads like this: under setting [1], 3010 to 10000 nM; under setting [2], 606 nM.

Take `CNCCN(C)Cc1n[nH]c2ccc(OCC3CCOCC3)cc12` [Compound 50]: the half-inhibitory concentration (IC50) runs as follows: under setting [1], 3010 to 10000 nM; under setting [2], 245 nM.

For `CNCCN(C)Cc1n[nH]c2ccc(OCC3CCN(C(C)=O)CC3)cc12` [Compound 51], the IC50 under setting [1] is 3010 to 10000 nM and the 50% inhibitory concentration (IC50) under setting [2] is > 10000 nM. In the same order, the values of `CNCCN(C)Cc1n[nH]c2ccc(OCC3CCCC3)cc12` [Compound 52] are 3010 to 10000 nM and > 10000 nM. For `CNCCN(C)Cc1c2cc(OCc3ccc(C#N)cc3)ccc2nn1C1CCOCC1` [Compound 53], in that order: 3010 to 10000 nM and > 10000 nM.

For `CNCCN(C)Cc1n[nH]c2ccc(OCC3CCCCC3)cc12` [Compound 54], the IC50 reads like this: under setting [1], 3010 to 10000 nM; under setting [2], > 10000 nM. In the same order, the values of `CNCCN(C)Cc1n[nH]c2ccc(Oc3ccc(C)cc3)cc12` [Compound 55] are 101 to 1000 nM and > 10000 nM.

These data come from US9765035B2 (priority 2013, dated 2017).
